One may read the IC50 as the point on the concentration scale where inhibition reaches its midpoint.

Among the data in patent US10329296B2, “Indole derivatives” (Richter Gedeon Nyrt., priority 2015, dated 2019) are IC50 values, retold here.

The assay addresses human MCH1 receptor (Homo sapiens, UniProt Q99705). In words: MCHR1 antagonism functional assay, measuring cytoplasmic calcium concentration ([Ca2+]i).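 Further: human MCH1 AequoScreen cells loaded with calcium-sensitive fluorescent dye, compounds preincubated one hour, then MCH given at its EC80, inhibition of ΔF/F rise relative to DMSO vehicle.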

Counter-ions that a name gives are not always drawn.

human MCH1 receptor, sequence (Q99705 whole entry): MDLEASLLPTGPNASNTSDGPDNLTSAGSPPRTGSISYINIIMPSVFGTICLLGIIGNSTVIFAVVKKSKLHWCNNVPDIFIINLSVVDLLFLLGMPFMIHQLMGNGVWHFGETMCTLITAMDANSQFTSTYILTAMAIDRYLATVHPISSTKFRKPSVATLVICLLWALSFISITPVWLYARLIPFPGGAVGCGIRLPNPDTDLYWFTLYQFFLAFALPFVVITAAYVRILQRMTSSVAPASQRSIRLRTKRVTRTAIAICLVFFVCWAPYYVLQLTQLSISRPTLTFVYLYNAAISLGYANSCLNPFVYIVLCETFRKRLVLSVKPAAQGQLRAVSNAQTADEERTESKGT
Description: Evaluation of MCHR1 Antagonism in Functional Assay
Cells: human MCH1 (SLC1) AequoScreen® Cell Line (Perkin Elmer ES-370-A, lot No: M4W-A2)
MCH was dissolved in MilliQ water (1 mM), aliquots were taken from the stock solution, and were kept at −20° C. One aliquot was used only once.
Assay buffer: HBSS+2 mM probenecid, pH=7.4
Measuring of Cytoplasmic Calcium Concentration ([Ca^2+]i):
On the day of measurement the culture medium was removed from the cells and a fluorescent Ca^2+-sensitive dye (FLIPR Calcium 5 kit, Molecular Devices R8186) was added to the cells at a 4× dilution compared to the recommended dilution by the manufacturer, in a volume of 100 μl/well, and cells were incubated at 37° C. for 10 min. […] The vehicle (DMSO, control treatment), or the buffer containing test compounds were added to the cells in a volume of 50 μl/well, and cells were incubated at 37° C. for further 60 min.
1 mM stock solution was made from the agonist in distilled water, this solution was distributed into aliquots, which were kept at −20° C. until use. One aliquot was used only once. Fluorescence was detected before addition of MCH for 20 s, and after addition of MCH for 40 s. MCH was applied at an EC80 concentration, the EC80-values were determined individually for every plate/experiment. For this whole MCH dose-response curves were determined on one part of the plate, 4 parameter sigmoidal curves were fitted to the experimental data by nonlinear regression, MCH EC80 values were derived from the fitted curve. The raw fluorescence data were converted into ΔF/F values (the maximum fluorescence value obtained after addition of MCH was normalized to the baseline fluorescence: ΔF/F=(Fmax−Fbaseline)/Fbaseline). […] IC50 values of the tested compounds were determined by fitting 4 parameter sigmoidal curves to inhibition % data. Data processing, including fitting curves by nonlinear regression, was done by SoftMaxPro software.

`CC(C)N1CCc2cc3cc(-n4ccc(OCc5ccccc5F)cc4=O)ccc3n2CC1` [Example 23, 4-[(2-fluorophenyl)methoxy]-1-[3-(propan-2-yl)-1H,2H,3H,4H,5H-[1,4]diazepino[1,7-a]indol-9-yl]-1,2-dihydropyridin-2-one hydrochloride salt]: the IC50 came to 15.7 nM.
